Laboratory results: US10131652B2, “Pyrimidinyloxy benzene derivatives as herbicides” (E. I. DU PONT DE NEMOURS AND COMPANY, priority 2014, dated 2018)
Read-outs that look alike come from different tables or passages of the source.

Legend:
Assay in all cases: Test F pre-/postemergence plant response
Type in all cases: in vivo
[1] = test system: yellow nutsedge (Cyperus esculentus); conditions: Cyperus, pre-emergence, scale 0 to 100, read-out: Plant response rating, Nutsedge, Yellow
Outline: (§1)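 Visual control ratings were scored 0 (no effect) to 100 (complete control) versus untreated plants after 14–21 greenhouse days. Compounds, formulated in a surfactant-containing non-phytotoxic solvent, were applied both to silt loam at planting (preemergence) and to 1- to 4-leaf plants 2–18 cm tall (postemergence).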

[2] = test system: velvetleaf (Abutilon theophrasti); conditions: Abutilon theophrasti, pre-emergence, scale 0 to 100, read-out: Plant response rating, Velvetleaf
Outline: as §1

[3] = test system: waterhemp (common waterhemp, Amaranthus rudis); conditions: Amaranthus tuberculatus, scale 0 to 100, read-out: Plant response rating, Waterhemp
Outline: as §1

[4] = test system: sandbur (southern sandbur, Cenchrus echinatus); conditions: Cenchrus echinatus, scale 0 to 100, read-out: Plant response rating, Sandbur
Outline: as §1

[5] = test system: barnyardgrass (Echinochloa crus-galli); conditions: Echinochloa crus-galli, scale 0 to 100, read-out: Plant response rating, Barnyardgrass
Outline: as §1

[6] = test system: palmer pigweed (Amaranthus palmeri); conditions: Amaranthus palmeri, scale 0 to 100, read-out: Plant response rating, Pigweed, Palmer
Outline: as §1

soybean (Glycine max) = conditions: Glycine max, scale 0 to 100, read-out: Plant response rating, Soybean
Outline: as §1

corn (Zea mays) = conditions: Zea mays, post-emergence, scale 0 to 100
Outline: as §1

[7] = post-emergence, 8 g ai/ha Postemergence
[8] = post-emergence, 16 g ai/ha Postemergence
[9] = post-emergence, 31 g ai/ha Postemergence
[10] = post-emergence, 62 g ai/ha Postemergence
[11] = post-emergence, 125 g ai/ha Postemergence
[12] = pre-emergence, 8 g ai/ha Preemergence
[13] = pre-emergence, 16 g ai/ha Preemergence
[14] = pre-emergence, 31 g ai/ha Preemergence
[15] = pre-emergence, 125 g ai/ha Preemergence

FC(F)c1cc(-c2ccccc2Oc2ncc(Cl)cn2)on1 [Compound 53, 5-chloro-2-[2-[3-(difluoromethyl)-5-isoxazolyl]phenoxy]pyrimidine]
40%: plant injury at 8 g/ha (soybean (Glycine max); [7])
80%: pest or weed control at 8 g/ha [3, 7] | plant injury at 16 g/ha (soybean (Glycine max); [8])
35%: plant injury at 125 g/ha (soybean (Glycine max); [15])
20%: pest or weed control at 125 g/ha ([1]; 125 g ai/ha Preemergence) | pest or weed control at 62 g/ha ([5]; pre-emergence, 62 g ai/ha Preemergence)
65%: pest or weed control at 16 g/ha ([2]; 16 g ai/ha Preemergence) | pest or weed control at 16 g/ha [6, 8]
98%: pest or weed control at 31 g/ha [3, 9]
90%: pest or weed control at 31 g/ha ([2]; 31 g ai/ha Preemergence) | pest or weed control at 31 g/ha [6, 9] | pest or weed control at 31 g/ha [6, 14]
70%: pest or weed control at 8 g/ha [6, 7]
10%: pest or weed control at 125 g/ha [4, 11] | pest or weed control at 125 g/ha [5, 11] | Corn plant response rating (crop injury, 0 = no effect, 100 = complete kill) at 125 g/ha (corn (Zea mays); 125 g ai/ha Postemergence)
5%: pest or weed control at 62 g/ha [4, 10]
0%: pest or weed control at 8 g/ha ([1]; 8 g ai/ha Preemergence) | pest or weed control at 16 g/ha ([1]; 16 g ai/ha Preemergence) | pest or weed control at 31 g/ha ([1]; 31 g ai/ha Preemergence) | pest or weed control at 62 g/ha ([1]; Preemergence) | pest or weed control at 8 g/ha ([2]; 8 g ai/ha Preemergence) | pest or weed control at 8 g/ha [3, 12] | pest or weed control at 16 g/ha [3, 13] | pest or weed control at 8 g/ha [4, 7] | pest or weed control at 16 g/ha [4, 8] | pest or weed control at 31 g/ha [4, 9] | pest or weed control at 8 g/ha [4, 12] | pest or weed control at 16 g/ha [4, 13] | pest or weed control at 31 g/ha [4, 14] | pest or weed control at 125 g/ha [4, 15] | pest or weed control at 62 g/ha ([4]; pre-emergence, Preemergence) | pest or weed control at 8 g/ha [5, 7] | pest or weed control at 16 g/ha [5, 8] | pest or weed control at 31 g/ha [5, 9] | pest or weed control at 62 g/ha [5, 10] | pest or weed control at 8 g/ha [5, 12] | pest or weed control at 16 g/ha [5, 13] | pest or weed control at 31 g/ha [5, 14] | pest or weed control at 8 g/ha [6, 12] | pest or weed control at 16 g/ha [6, 13] | plant injury at 8 g/ha (soybean (Glycine max); [12]) | plant injury at 16 g/ha (soybean (Glycine max); [13]) | plant injury at 31 g/ha (soybean (Glycine max); [14]) | plant injury at 62 g/ha (soybean (Glycine max); pre-emergence, Preemergence) | Corn plant response rating (crop injury, 0 = no effect, 100 = complete kill) at 8 g/ha (corn (Zea mays); 8 g ai/ha Postemergence) | Corn plant response rating (crop injury, 0 = no effect, 100 = complete kill) at 16 g/ha (corn (Zea mays); 16 g ai/ha Postemergence) | Corn plant response rating (crop injury, 0 = no effect, 100 = complete kill) at 31 g/ha (corn (Zea mays); 31 g ai/ha Postemergence) | Corn plant response rating (crop injury, 0 = no effect, 100 = complete kill) at 62 g/ha (corn (Zea mays); 62 g ai/ha Postemergence)
100%: pest or weed control at 125 g/ha ([2]; 125 g ai/ha Preemergence) | pest or weed control at 62 g/ha ([2]; Preemergence) | pest or weed control at 62 g/ha [3, 10] | pest or weed control at 125 g/ha [3, 11] | pest or weed control at 125 g/ha [3, 15] | pest or weed control at 62 g/ha ([3]; pre-emergence, Preemergence) | pest or weed control at 62 g/ha [6, 10] | pest or weed control at 125 g/ha [6, 11] | pest or weed control at 125 g/ha [6, 15] | pest or weed control at 62 g/ha ([6]; pre-emergence, Preemergence)
50%: pest or weed control at 125 g/ha [5, 15]
95%: pest or weed control at 16 g/ha [3, 8] | pest or weed control at 31 g/ha [3, 14] | plant injury at 31 g/ha (soybean (Glycine max); [9]) | plant injury at 62 g/ha (soybean (Glycine max); [10]) | plant injury at 125 g/ha (soybean (Glycine max); [11])
